This is an account of results in BindingDB's records for doi:10.7270/Q28G8J4C (Broad Institute, 2009).

A value given as a limit tells only on which side of the number the result lay.

The term EC50 denotes the concentration that produces a half-maximal response. Read a low EC50 as higher potency in that assay.

In this assay the target is T1, POsterior Segregation (Caenorhabditis elegans, UniProt G5EF15).
T1 sequence (G5EF15 whole entry): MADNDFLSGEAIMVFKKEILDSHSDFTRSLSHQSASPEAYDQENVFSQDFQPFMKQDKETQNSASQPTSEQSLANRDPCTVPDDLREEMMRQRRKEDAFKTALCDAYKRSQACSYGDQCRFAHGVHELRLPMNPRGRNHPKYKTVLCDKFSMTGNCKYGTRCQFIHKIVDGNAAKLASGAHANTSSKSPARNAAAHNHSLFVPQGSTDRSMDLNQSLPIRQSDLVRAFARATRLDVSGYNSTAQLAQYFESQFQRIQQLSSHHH
The experiment in a line: inhibitors of POS-1/mex-3 RNA binding, dose response, biochemical, fluorescence polarization (AID 1964). On the technique in general: Fluorescence polarisation rises when a labelled molecule tumbles more slowly, as on binding a larger partner.
`O=C1c2cccc([N+](=O)[O-])c2C(=O)N1n1c(O)csc1=S` [2-(4-keto-2-thioxo-thiazolidin-3-yl)-4-nitro-isoindoline-1,3-quinone] yielded a concentration for a half-maximal effect (EC50) of 24.9 µM.
Then `Cc1nnc(N2C(=O)C(=O)C(C(=O)c3ccco3)C2c2ccc(C(C)(C)C)cc2)s1` (stereo not given) [2-(4-tert-butylphenyl)-3-(furan-2-carbonyl)-4-hydroxy-1-(5-methyl-1,3,4-thiadiazol-2-yl)-2H-pyrrol-5-one], with 24.9 µM; and `COc1ccc(C2C3=C(CCCC3=O)OC(=N)C2C#N)c(OC)c1OC` (stereo not given) [2-Amino-5-oxo-4-(2,3,4-trimethoxy-phenyl)-5,6,7,8-tetrahydro-4H-chromene-3-carbonitrile], with above 300 µM; and `N#CC1C(=N)Oc2cc(O)c(Cl)cc2C1c1ccccc1F` (stereo not given) [2-Amino-6-chloro-4-(2-fluoro-phenyl)-7-hydroxy-4H-chromene-3-carbonitrile], with above 300 µM.
Turning to `O=CC(C=Nc1ccccn1)c1nc2ccccc2o1` (stereo not given) [2-Benzooxazol-2-yl-3-(pyridin-2-ylamino)-propenal], the half-maximal effective concentration (EC50) was above 300 µM.
Then `CN1C(=O)/C(=C/c2ccc(-c3ccccc3[N+](=O)[O-])o2)S/C1=N/c1ccc(Cl)c(C(=O)O)c1` [2-Chloro-5-[3-methyl-5-[1-[5-(2-nitro-phenyl)-furan-2-yl]-meth-(Z)-ylidene]-4-oxo-thiazolidin-(2Z)-ylideneamino]-benzoic acid], with 36.3 µM.
Then `O=C(CC(=O)c1ccccc1)C(=O)NNC(=O)c1ccccc1[N+](=O)[O-]` [2-Nitro-benzoic acid N'-(2-hydroxy-4-oxo-4-phenyl-but-2-enoyl)-hydrazide], with 70 µM; and `CC(N=Nc1ccc([N+](=O)[O-])cc1[N+](=O)[O-])c1cc2c(ccc3ccccc32)oc1=O` (stereo not given) [2-[1-[(2,4-dinitrophenyl)hydrazinylidene]ethyl]-3-benzo[f][1]benzopyranone], with above 300 µM.
In turn, `Oc1csc(N=NCc2cccs2)n1` [2-[2-(thiophen-2-ylmethylidene)hydrazinyl]-1,3-thiazol-4-one] showed a concentration giving a half-maximal response (EC50) above 300 µM.
As for `CCOc1cc(C=C2SC(Nc3ccc(CC)cc3)=NC2=O)ccc1OCC(=O)O` [2-[2-ethoxy-4-[(Z)-[2-(4-ethylanilino)-4-oxo-1,3-thiazol-5-ylidene]methyl]phenoxy]acetic acid], the figure is 25.6 µM; as for `C=CCn1c(=O)c(=Cc2ccsc2)s/c1=C(\C#N)C(=O)NCCN1CCOCC1` [2-[3-allyl-4-keto-5-(3-thenylidene)thiazolidin-2-ylidene]-2-cyano-N-(2-morpholinoethyl)acetamide], 6.5 µM.
For the compound `C=CCn1c(=O)c(=Cc2ccc(C)o2)s/c1=C(\C#N)C(=O)c1ccccc1` [2-[3-allyl-4-keto-5-[(5-methyl-2-furyl)methylene]thiazolidin-2-ylidene]-3-keto-3-phenyl-propionitrile], the EC50 worked out at 30.7 µM.
Then `Cc1ccc(C(=O)C2C(=O)C(=O)N(Cc3ccco3)C2c2ccc(N(C)C)cc2)o1` (stereo not given) [2-[4-(dimethylamino)phenyl]-1-(2-furanylmethyl)-4-hydroxy-3-[(5-methyl-2-furanyl)-oxomethyl]-2H-pyrrol-5-one], with above 300 µM; and `COc1ccc(C2CC(=O)C(=CNCCCO)C(=O)C2)cc1` (stereo not given) [2-[(3-hydroxypropylamino)methylidene]-5-(4-methoxyphenyl)cyclohexane-1,3-dione], with 34.8 µM.
Then `Cc1ccc(NNC2=Nc3ccccc3C2=O)cc1` [2-[(4-methylphenyl)hydrazo]-3-indolone], with 16 µM.
As for `CC1(C)CC(=O)C2=C(C1)OC(=N)C(C#N)[C@@]21C(=O)N(CC(N)=O)c2ccccc21` (stereo partly drawn) [2-[(4R)-2-amino-3-cyano-2',5-diketo-7,7-dimethyl-spiro[6,8-dihydrochromene-4,3'-indoline]-1'-yl]acetamide], the figure is above 300 µM.
Compound `N#CC1C(=N)OC2=C(C(=O)CCC2)[C@]12C(=O)N(CC(N)=O)c1ccccc12` (stereo partly drawn) [2-[(4R)-2-amino-3-cyano-2',5-diketo-spiro[7,8-dihydro-6H-chromene-4,3'-indoline]-1'-yl]acetamide] gave an EC50 above 300 µM.
Then `NC(=O)c1ccccc1N=CCC(=O)c1ccc(F)cc1` [2-[[(E)-3-(4-fluorophenyl)-3-keto-prop-1-enyl]amino]benzamide], with above 300 µM; and `COc1cccc(CN2C(=O)C3(C4=C(CCCC4=O)OC(=N)C3C#N)c3ccccc32)c1` (stereo not given) [2-amino-1'-(3-methoxybenzyl)-2',5-dioxo-1',2',5,6,7,8-hexahydrospiro[chromene-4,3'-indole]-3-carbonitrile], with above 300 µM.
Consider `CC1(C)CC(=O)C2=C(C1)OC(=N)C(C#N)C21C(=O)N(CN2CCOCC2)c2ccccc21` (stereo not given) [2-amino-2',5-diketo-7,7-dimethyl-1'-(morpholinomethyl)spiro[6,8-dihydrochromene-4,3'-indoline]-3-carbonitrile], for which the half-maximal effective concentration (EC50) was above 300 µM.
Take `COc1ccc(C2C3=C(CCCC3=O)OC(=N)C2C#N)cc1OC` (stereo not given) [2-amino-4-(3,4-dimethoxyphenyl)-5-keto-4,6,7,8-tetrahydrochromene-3-carbonitrile]: the EC50 is above 300 µM.
Then `COc1ccc(C2C3=C(CC(C)(C)CC3=O)OC(=N)C2C#N)cc1OC` (stereo not given) [2-amino-4-(3,4-dimethoxyphenyl)-5-keto-7,7-dimethyl-6,8-dihydro-4H-chromene-3-carbonitrile], with above 300 µM; and `N#CC1=C2CCCCC2C(c2cccnc2)C(C#N)(C#N)C1=N` (stereo not given) [2-amino-4-(3-pyridinyl)-4a,5,6,7-tetrahydro-4H-naphthalene-1,3,3-tricarbonitrile], with 22.2 µM.
Then `COc1ccc(C2C3=C(CC(C)(C)CC3=O)OC(=N)C2C#N)cc1` (stereo not given) [2-amino-4-(4-methoxyphenyl)-7,7-dimethyl-5-oxo-6,8-dihydro-4H-1-benzopyran-3-carbonitrile], with 69.7 µM.
Then `COc1cc(OC)c(C2C3=C(CC(C)CC3=O)OC(=N)C2C#N)cc1OC` (stereo not given) [2-amino-4-asaryl-5-keto-7-methyl-4,6,7,8-tetrahydrochromene-3-carbonitrile], with above 300 µM; and `N#CC1C(=N)OC2=C(C(=O)CCC2)C1c1ccccc1` (stereo not given) [2-amino-5-keto-4-phenyl-4,6,7,8-tetrahydrochromene-3-carbonitrile], with above 300 µM; and `COc1ccc(C2C3=C(CC(C)(C)CC3=O)OC(=N)C2C#N)c(OC)c1OC` (stereo not given) [2-amino-5-keto-7,7-dimethyl-4-(2,3,4-trimethoxyphenyl)-6,8-dihydro-4H-chromene-3-carbonitrile], with above 300 µM.
As to `CC1(C)CC(=O)C2=C(C1)OC(=N)C(C#N)C2c1ccccc1` (stereo not given) [2-amino-5-keto-7,7-dimethyl-4-phenyl-6,8-dihydro-4H-chromene-3-carbonitrile], the EC50 was above 300 µM.
Then `COc1ccc(C2C3=C(CC(C)CC3=O)OC(=N)C2C#N)c(OC)c1OC` (stereo not given) [2-amino-5-keto-7-methyl-4-(2,3,4-trimethoxyphenyl)-4,6,7,8-tetrahydrochromene-3-carbonitrile], with above 300 µM.
Then `CC1CCC2=C(C#N)C(=N)C(C#N)(C#N)C(c3cccs3)C2C1` (stereo not given) [2-amino-6-methyl-4-(2-thienyl)-4a,5,6,7-tetrahydro-4H-naphthalene-1,3,3-tricarbonitrile], with 21.7 µM; and `CCOc1cc(C2C(C(C)=O)=C(C)OC(=N)C2C#N)cc(Br)c1O` (stereo not given) [2-azanyl-4-(3-bromanyl-5-ethoxy-4-oxidanyl-phenyl)-5-ethanoyl-6-methyl-4H-pyran-3-carbonitrile], with 12.3 µM.
Take `N#CC1C(=N)OC2=C(C(=O)CCC2)C1c1cc2c(cc1Br)OCO2` (stereo not given) [2-azanyl-4-(6-bromanyl-1,3-benzodioxol-5-yl)-5-oxidanylidene-4,6,7,8-tetrahydrochromene-3-carbonitrile]: the half-maximal effective concentration (EC50) is above 300 µM.
Then `N#CC1C(=N)OC2=C(C(=O)CC(c3ccco3)C2)C1c1ccc(OCc2c(F)cccc2Cl)cc1` (stereo not given) [2-azanyl-4-[4-[(2-chloranyl-6-fluoranyl-phenyl)methoxy]phenyl]-7-(furan-2-yl)-5-oxidanylidene-4,6,7,8-tetrahydrochromene-3-carbonitrile], with above 300 µM; and `CC(N=Nc1ccc(Cl)c(C(=O)O)c1)c1ccc[nH]1` (stereo not given) [2-chloro-5-[2-[(1Z)-1-pyrrol-2-ylideneethyl]hydrazinyl]benzoic acid], with above 300 µM.
Regarding `O=C(O)c1cc(-c2ccc(CN=Nc3ccc([N+](=O)[O-])cn3)o2)ccc1Cl` [2-chloro-5-[5-[[(5-nitropyridin-2-yl)hydrazinylidene]methyl]furan-2-yl]benzoic acid], the concentration giving a half-maximal response (EC50) was 31 µM.
Then `CC1(C)CC(=O)C2=C(C1)OC(=N)C(C#N)C2c1cccc(OC(=O)c2ccco2)c1` (stereo not given) [2-furancarboxylic acid [3-(2-amino-3-cyano-7,7-dimethyl-5-oxo-6,8-dihydro-4H-1-benzopyran-4-yl)phenyl] ester], with above 300 µM; and `COc1[nH]c(N=Cc2ccccc2)c(C#N)c1C#N` [2-methoxy-5-[(phenylmethylene)amino]-1H-pyrrole-3,4-dicarbonitrile], with 6.46 µM.
As for `O=C1c2cccc3cccc(c23)C(=O)C1[N+](=O)[O-]` [2-nitro-3-oxidanyl-phenalen-1-one], the figure is 12.6 µM.
Then `Cc1ncc(CO)c(CNNC(=O)C2=CC(=O)C(=O)C(=O)C2)c1O` [3,4,5-trihydroxy-N'-{(1E)-[3-hydroxy-5-(hydroxymethyl)-2-methylpyridin-4-yl]methylene}benzohydrazide], with 71.2 µM; and `C=CCOc1cccc(C2C(C(=O)c3cc4ccccc4o3)C(=O)C(=O)N2c2cc(C)on2)c1` (stereo not given) [3-(1-benzofuran-2-carbonyl)-4-hydroxy-1-(5-methyl-1,2-oxazol-3-yl)-2-(3-prop-2-enoxyphenyl)-2H-pyrrol-5-one], with above 300 µM.
